In paper PMC10682951, “Structure-function and rational design of a spider toxin Ssp1a at human voltage-gated sodium channel subtypes” (Frontiers in Pharmacology, 2023):
Bridge positions count the residues as written; N and C are the ends. Peptide text beside a SMILES is read from it.

How the values were obtained:
Type in all cases: cell-based
hNaV1.7 = target: T1, hNaV1.7 (Homo sapiens, UniProt Q15858); experiment: Automated whole-cell patch-clamp (QPatch 16X), hNaV1.7; conditions: for IC50: HEK293 cells expressing hNaV1.7 + β1 subunit, QPatch 16X, holding −80 mV, step to 0 mV, peptide incubated 2 min, 0.1% BSA, mean, SEM and n (3-9)
T1 construct: host or cells: HEK293
How it was run: (§1)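 HEK293 cells stably expressing the channel (human subtypes with β1 subunit), held at −80 mV; 2 min peptide pre-incubation, then 20 ms steps to 0 mV after a 200 ms −120 mV conditioning pulse. Extracellular pH 7.3 with 20 mM TEA-Cl, CsF-based pipette solution, 0.1% BSA; IC50 from four-parameter Hill fit.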

hNaV1.3 = target: T2, hNaV1.3 (Homo sapiens, UniProt Q9NY46); experiment: Automated whole-cell patch-clamp (QPatch 16X), hNaV1.3; conditions: HEK293 cells expressing hNaV1.3 + β1 subunit; QPatch 16X; holding −80 mV, step to 0 mV; peptide incubated 2 min; 0.1% BSA; mean, SEM and n (3-12)
T2 construct: host or cells: HEK293
How it was run: as §1

hNaV1.2 = target: T3, hNaV1.2 (Homo sapiens, UniProt Q99250); experiment: Automated whole-cell patch-clamp (QPatch 16X), hNaV1.2; conditions: for IC50: HEK293 cells expressing hNaV1.2 + β1 subunit, QPatch 16X, holding −80 mV, step to 0 mV, peptide incubated 2 min, 0.1% BSA, mean, SEM and n (2-7); for hNaV1.2-selectivity against hNaV1.3: ratio of potencies hNaV1.3 / hNaV1.2
T3 construct: host or cells: HEK293
How it was run: as §1

T3 sequence (Q07699 19-218): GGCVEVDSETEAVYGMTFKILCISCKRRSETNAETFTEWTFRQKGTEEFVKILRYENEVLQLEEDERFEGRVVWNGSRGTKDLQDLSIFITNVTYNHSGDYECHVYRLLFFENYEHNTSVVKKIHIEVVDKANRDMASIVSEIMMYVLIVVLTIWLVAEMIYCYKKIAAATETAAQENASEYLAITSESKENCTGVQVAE
T3 sequence (Q99250 whole entry): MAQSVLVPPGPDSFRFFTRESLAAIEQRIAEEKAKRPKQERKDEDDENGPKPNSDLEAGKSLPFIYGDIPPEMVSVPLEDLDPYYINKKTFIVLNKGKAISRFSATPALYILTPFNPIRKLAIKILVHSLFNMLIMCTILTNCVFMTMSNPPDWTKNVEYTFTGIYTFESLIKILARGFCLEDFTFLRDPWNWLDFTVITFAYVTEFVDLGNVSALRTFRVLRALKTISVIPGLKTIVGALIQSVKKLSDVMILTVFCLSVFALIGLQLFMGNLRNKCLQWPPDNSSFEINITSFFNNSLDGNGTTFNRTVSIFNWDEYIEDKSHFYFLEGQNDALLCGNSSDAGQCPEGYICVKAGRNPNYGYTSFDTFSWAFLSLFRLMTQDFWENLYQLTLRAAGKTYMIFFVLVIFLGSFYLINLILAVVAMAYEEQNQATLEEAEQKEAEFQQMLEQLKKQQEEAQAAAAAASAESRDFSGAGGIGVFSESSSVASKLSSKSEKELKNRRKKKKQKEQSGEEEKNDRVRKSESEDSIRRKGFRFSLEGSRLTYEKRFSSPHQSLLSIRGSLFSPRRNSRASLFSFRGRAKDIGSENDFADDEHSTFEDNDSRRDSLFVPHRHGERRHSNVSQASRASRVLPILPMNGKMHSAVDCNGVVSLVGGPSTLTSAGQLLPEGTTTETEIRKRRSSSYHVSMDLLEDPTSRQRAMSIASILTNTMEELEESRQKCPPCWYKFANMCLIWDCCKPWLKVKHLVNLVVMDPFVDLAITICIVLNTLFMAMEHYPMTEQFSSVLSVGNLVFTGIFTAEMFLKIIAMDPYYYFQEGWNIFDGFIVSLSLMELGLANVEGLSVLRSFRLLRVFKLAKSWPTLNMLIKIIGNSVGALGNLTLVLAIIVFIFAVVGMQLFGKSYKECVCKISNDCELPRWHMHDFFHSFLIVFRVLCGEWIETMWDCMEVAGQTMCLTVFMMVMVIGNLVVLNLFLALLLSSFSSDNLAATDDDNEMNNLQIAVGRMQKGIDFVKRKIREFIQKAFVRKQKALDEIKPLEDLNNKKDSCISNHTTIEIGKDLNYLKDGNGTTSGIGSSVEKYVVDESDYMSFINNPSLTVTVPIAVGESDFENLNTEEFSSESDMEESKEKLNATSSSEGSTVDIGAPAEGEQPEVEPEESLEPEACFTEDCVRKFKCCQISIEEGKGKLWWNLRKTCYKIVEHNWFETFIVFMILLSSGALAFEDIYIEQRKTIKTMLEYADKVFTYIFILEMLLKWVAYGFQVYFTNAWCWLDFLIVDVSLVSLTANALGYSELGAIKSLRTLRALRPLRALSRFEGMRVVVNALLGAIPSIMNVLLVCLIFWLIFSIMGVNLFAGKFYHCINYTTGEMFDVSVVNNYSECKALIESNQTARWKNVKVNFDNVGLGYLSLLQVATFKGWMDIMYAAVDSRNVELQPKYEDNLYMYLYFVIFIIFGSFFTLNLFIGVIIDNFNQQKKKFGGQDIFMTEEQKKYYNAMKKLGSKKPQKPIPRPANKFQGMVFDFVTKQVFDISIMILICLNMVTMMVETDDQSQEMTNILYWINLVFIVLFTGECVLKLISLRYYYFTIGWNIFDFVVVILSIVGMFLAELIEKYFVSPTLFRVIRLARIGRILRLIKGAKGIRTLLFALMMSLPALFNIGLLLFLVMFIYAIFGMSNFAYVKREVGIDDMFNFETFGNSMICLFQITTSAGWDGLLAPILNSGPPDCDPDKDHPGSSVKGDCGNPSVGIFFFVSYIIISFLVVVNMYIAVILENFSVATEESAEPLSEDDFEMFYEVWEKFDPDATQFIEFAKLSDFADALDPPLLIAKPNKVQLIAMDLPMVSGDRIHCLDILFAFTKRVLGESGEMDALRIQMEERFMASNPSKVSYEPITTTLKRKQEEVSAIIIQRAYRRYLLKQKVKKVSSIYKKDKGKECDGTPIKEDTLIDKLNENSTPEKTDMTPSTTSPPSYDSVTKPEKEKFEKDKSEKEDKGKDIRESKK
T1 sequence (Q15858 whole entry): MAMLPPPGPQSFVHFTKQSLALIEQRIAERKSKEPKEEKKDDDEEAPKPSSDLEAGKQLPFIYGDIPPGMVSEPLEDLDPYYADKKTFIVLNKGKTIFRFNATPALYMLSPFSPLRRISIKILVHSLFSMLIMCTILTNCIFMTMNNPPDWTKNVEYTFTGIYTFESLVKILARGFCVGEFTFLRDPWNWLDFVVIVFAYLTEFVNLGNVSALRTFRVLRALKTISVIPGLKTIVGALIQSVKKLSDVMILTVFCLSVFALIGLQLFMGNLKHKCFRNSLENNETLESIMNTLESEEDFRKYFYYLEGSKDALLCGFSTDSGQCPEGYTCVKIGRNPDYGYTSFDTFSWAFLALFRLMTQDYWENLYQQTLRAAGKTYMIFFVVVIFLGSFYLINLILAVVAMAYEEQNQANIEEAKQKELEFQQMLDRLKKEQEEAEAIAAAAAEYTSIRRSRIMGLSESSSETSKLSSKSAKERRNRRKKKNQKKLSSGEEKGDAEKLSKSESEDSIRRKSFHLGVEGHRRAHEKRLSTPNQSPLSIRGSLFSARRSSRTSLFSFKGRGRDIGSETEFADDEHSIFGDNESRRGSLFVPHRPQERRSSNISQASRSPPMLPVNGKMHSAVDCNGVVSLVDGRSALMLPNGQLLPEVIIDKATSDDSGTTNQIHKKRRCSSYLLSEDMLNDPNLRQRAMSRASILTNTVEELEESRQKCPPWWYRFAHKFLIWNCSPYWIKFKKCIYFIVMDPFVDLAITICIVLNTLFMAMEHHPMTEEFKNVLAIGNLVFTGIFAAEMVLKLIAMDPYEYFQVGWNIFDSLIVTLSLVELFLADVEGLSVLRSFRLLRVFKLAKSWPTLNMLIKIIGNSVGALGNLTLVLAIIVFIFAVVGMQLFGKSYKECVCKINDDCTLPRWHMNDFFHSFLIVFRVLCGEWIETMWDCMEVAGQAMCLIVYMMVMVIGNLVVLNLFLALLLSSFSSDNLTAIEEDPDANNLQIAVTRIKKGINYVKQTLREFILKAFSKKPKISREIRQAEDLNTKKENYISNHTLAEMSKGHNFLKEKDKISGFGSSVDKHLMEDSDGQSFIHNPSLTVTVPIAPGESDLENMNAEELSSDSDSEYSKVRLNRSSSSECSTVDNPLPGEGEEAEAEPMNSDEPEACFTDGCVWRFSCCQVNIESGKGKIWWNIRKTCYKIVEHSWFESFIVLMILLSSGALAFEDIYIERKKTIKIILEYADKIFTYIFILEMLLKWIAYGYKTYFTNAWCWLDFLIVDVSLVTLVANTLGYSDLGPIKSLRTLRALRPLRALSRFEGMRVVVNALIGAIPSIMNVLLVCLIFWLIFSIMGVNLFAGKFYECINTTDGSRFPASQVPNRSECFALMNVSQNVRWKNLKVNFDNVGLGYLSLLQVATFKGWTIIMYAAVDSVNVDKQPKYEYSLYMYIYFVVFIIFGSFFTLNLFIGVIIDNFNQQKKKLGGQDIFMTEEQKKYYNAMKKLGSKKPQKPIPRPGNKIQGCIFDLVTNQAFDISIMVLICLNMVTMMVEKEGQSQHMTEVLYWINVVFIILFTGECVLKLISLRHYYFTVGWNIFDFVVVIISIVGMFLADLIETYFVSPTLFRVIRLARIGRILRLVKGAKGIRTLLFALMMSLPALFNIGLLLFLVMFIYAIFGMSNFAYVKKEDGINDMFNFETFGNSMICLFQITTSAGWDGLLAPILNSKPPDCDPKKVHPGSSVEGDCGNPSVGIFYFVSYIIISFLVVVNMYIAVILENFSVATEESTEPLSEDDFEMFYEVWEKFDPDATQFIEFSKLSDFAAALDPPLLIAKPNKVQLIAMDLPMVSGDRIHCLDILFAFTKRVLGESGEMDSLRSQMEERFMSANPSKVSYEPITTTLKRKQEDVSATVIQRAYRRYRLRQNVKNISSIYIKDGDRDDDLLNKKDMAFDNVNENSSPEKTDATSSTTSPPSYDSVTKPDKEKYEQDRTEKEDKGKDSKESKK
T1 sequence (Q07699 19-218, further chain): as the sequence (Q07699 19-218) above

Compound | IC50 (hNaV1.7) [nM] | IC50 (hNaV1.3) [nM] | IC50 (hNaV1.2) [nM] | hNaV1.2-selectivity against hNaV1.3 (hNaV1.2) [fold] | Loss (reduction) in potency vs rSsp1a at hNaV1.7 (hNaV1.7; relative to wild type rSsp1a) [fold] | Loss (reduction) in potency vs rSsp1a at hNaV1.2 (hNaV1.2; relative to wild type rSsp1a) [fold]
CC(C)C[C@H](NC(=O)[C@H](CC(=O)O)NC(=O)[C@H](Cc1ccc(O)cc1)NC(=O)[C@H](CCCNC(=N)N)NC(=O)[C@@H]1CSSC[C@@H]2NC(=O)[C@H](CCCCN)NC(=O)[C@H](CC(N)=O)NC(=O)[C@H](CC(N)=O)NC(=O)[C@H](CC(N)=O)NC(=O)[C@@H]3CCCN3C(=O)[C@H](CC(=O)O)NC(=O)[C@@H]3CSSC[C@H](NC(=O)[C@H](C(C)C)NC(=O)[C@H](Cc4ccc(O)cc4)NC(=O)CNC(=O)[C@H](CCC(=O)O)NC(=O)[C@H](CSSC[C@H](NC(=O)[C@H](CC(=O)O)NC(=O)CN)C(=O)N[C@@H](CC(C)C)C(=O)NCC(=O)N[C@@H](Cc4c[nH]c5ccccc45)C(=O)N[C@@H](Cc4ccccc4)C(=O)N[C@@H](CO)C(=O)NCC(=O)N3)NC2=O)C(=O)N[C@@H](Cc2c[nH]cn2)C(=O)N[C@@H](Cc2c[nH]c3ccccc23)C(=O)N[C@@H](CCCCN)C(=O)N[C@@H](Cc2ccc(O)cc2)C(=O)N[C@@H](CCCNC(=N)N)C(=O)N[C@@H](Cc2c[nH]c3ccccc23)C(=O)N1)C(=O)O [P27R] | 141 | > 1000 | 77 | > 10 |  | 
CC(C)C[C@H](NC(=O)[C@H](CC(=O)O)NC(=O)[C@H](C)NC(=O)[C@H](CCCNC(=N)N)NC(=O)[C@@H]1CSSC[C@@H]2NC(=O)[C@H](CCCCN)NC(=O)[C@H](CC(N)=O)NC(=O)[C@H](CC(N)=O)NC(=O)[C@H](CC(N)=O)NC(=O)[C@@H]3CCCN3C(=O)[C@H](CC(=O)O)NC(=O)[C@@H]3CSSC[C@H](NC(=O)[C@H](C(C)C)NC(=O)[C@H](Cc4ccc(O)cc4)NC(=O)CNC(=O)[C@H](CCC(=O)O)NC(=O)[C@H](CSSC[C@H](NC(=O)[C@H](CC(=O)O)NC(=O)CN)C(=O)N[C@@H](CC(C)C)C(=O)NCC(=O)N[C@@H](Cc4c[nH]c5ccccc45)C(=O)N[C@@H](Cc4ccccc4)C(=O)N[C@@H](CO)C(=O)NCC(=O)N3)NC2=O)C(=O)N[C@@H](Cc2c[nH]cn2)C(=O)N[C@@H](Cc2c[nH]c3ccccc23)C(=O)N[C@@H](CCCCN)C(=O)N[C@@H](Cc2ccc(O)cc2)C(=O)N2CCC[C@H]2C(=O)N[C@@H](Cc2c[nH]c3ccccc23)C(=O)N1)C(=O)O [Y31A] | 254 | > 1000 | 633 |  |  | 
CC(C)C[C@H](NC(=O)[C@H](CCCCN)NC(=O)[C@H](Cc1ccc(O)cc1)NC(=O)[C@H](CCCNC(=N)N)NC(=O)[C@@H]1CSSC[C@@H]2NC(=O)[C@H](CCCCN)NC(=O)[C@H](CC(N)=O)NC(=O)[C@H](CC(N)=O)NC(=O)[C@H](CC(N)=O)NC(=O)[C@@H]3CCCN3C(=O)[C@H](CC(=O)O)NC(=O)[C@@H]3CSSC[C@H](NC(=O)[C@H](C(C)C)NC(=O)[C@H](Cc4ccc(O)cc4)NC(=O)CNC(=O)[C@H](CCC(=O)O)NC(=O)[C@H](CSSC[C@H](NC(=O)[C@H](CC(=O)O)NC(=O)CN)C(=O)N[C@@H](CC(C)C)C(=O)NCC(=O)N[C@@H](Cc4c[nH]c5ccccc45)C(=O)N[C@@H](Cc4ccccc4)C(=O)N[C@@H](CO)C(=O)NCC(=O)N3)NC2=O)C(=O)N[C@@H](Cc2c[nH]cn2)C(=O)N[C@@H](Cc2c[nH]c3ccccc23)C(=O)N[C@@H](CCCCN)C(=O)N[C@@H](Cc2ccc(O)cc2)C(=O)N2CCC[C@H]2C(=O)N[C@@H](Cc2c[nH]c3ccccc23)C(=O)N1)C(=O)O [D32K] | 86 | 98 | 75 |  |  | 
CC(C)C[C@H](NC(=O)[C@H](CC(=O)O)NC(=O)[C@H](Cc1ccc(O)cc1)NC(=O)[C@H](CCCNC(=N)N)NC(=O)[C@@H]1CSSC[C@@H]2NC(=O)[C@H](CCCCN)NC(=O)[C@H](CC(N)=O)NC(=O)[C@H](CC(N)=O)NC(=O)[C@H](CC(N)=O)NC(=O)[C@@H]3CCCN3C(=O)[C@H](CC(=O)O)NC(=O)[C@@H]3CSSC[C@H](NC(=O)[C@H](C(C)C)NC(=O)[C@H](Cc4ccc(O)cc4)NC(=O)CNC(=O)[C@H](CCC(=O)O)NC(=O)[C@H](CSSC[C@H](NC(=O)[C@H](CCCCN)NC(=O)CN)C(=O)N[C@@H](CC(C)C)C(=O)NCC(=O)N[C@@H](Cc4c[nH]c5ccccc45)C(=O)N[C@@H](Cc4ccccc4)C(=O)N[C@@H](CO)C(=O)NCC(=O)N3)NC2=O)C(=O)N[C@@H](Cc2c[nH]cn2)C(=O)N[C@@H](Cc2c[nH]c3ccccc23)C(=O)N[C@@H](CCCCN)C(=O)N[C@@H](Cc2ccc(O)cc2)C(=O)N2CCC[C@H]2C(=O)N[C@@H](Cc2c[nH]c3ccccc23)C(=O)N1)C(=O)O [D1K] | 240 | 196 | 97 |  |  | 
CC(C)C[C@H](NC(=O)[C@H](CC(=O)O)NC(=O)[C@H](Cc1ccc(O)cc1)NC(=O)[C@H](C)NC(=O)[C@@H]1CSSC[C@@H]2NC(=O)[C@H](CCCCN)NC(=O)[C@H](CC(N)=O)NC(=O)[C@H](CC(N)=O)NC(=O)[C@H](CC(N)=O)NC(=O)[C@@H]3CCCN3C(=O)[C@H](CC(=O)O)NC(=O)[C@@H]3CSSC[C@H](NC(=O)[C@H](C(C)C)NC(=O)[C@H](Cc4ccc(O)cc4)NC(=O)CNC(=O)[C@H](CCC(=O)O)NC(=O)[C@H](CSSC[C@H](NC(=O)[C@H](CC(=O)O)NC(=O)CN)C(=O)N[C@@H](CC(C)C)C(=O)NCC(=O)N[C@@H](Cc4c[nH]c5ccccc45)C(=O)N[C@@H](Cc4ccccc4)C(=O)N[C@@H](CO)C(=O)NCC(=O)N3)NC2=O)C(=O)N[C@@H](Cc2c[nH]cn2)C(=O)N[C@@H](Cc2c[nH]c3ccccc23)C(=O)N[C@@H](CCCCN)C(=O)N[C@@H](Cc2ccc(O)cc2)C(=O)N2CCC[C@H]2C(=O)N[C@@H](Cc2c[nH]c3ccccc23)C(=O)N1)C(=O)O [R30A] (H-GDCLGWFSGCDPNNNKCCEGYVCHWKYPWCAYDL-OH; disulfide 3-18, 10-23, 17-30 (inferred); N-terminus and C-terminus assumed) | > 1000 | > 1000 | > 1000 |  | ≥ 10 | ≥ 10
CC(C)C[C@H](NC(=O)[C@H](CC(=O)O)NC(=O)[C@H](Cc1ccc(O)cc1)NC(=O)[C@H](CCCNC(=N)N)NC(=O)[C@@H]1CSSC[C@@H]2NC(=O)[C@H](CCCCN)NC(=O)[C@H](CC(N)=O)NC(=O)[C@H](CC(N)=O)NC(=O)[C@H](CC(N)=O)NC(=O)[C@@H]3CCCN3C(=O)[C@H](CC(=O)O)NC(=O)[C@@H]3CSSC[C@H](NC(=O)[C@H](C(C)C)NC(=O)[C@H](Cc4ccc(O)cc4)NC(=O)CNC(=O)[C@H](Cc4ccc(O)cc4)NC(=O)[C@H](CSSC[C@H](NC(=O)[C@H](CC(=O)O)NC(=O)CN)C(=O)N[C@@H](CC(C)C)C(=O)NCC(=O)N[C@@H](Cc4c[nH]c5ccccc45)C(=O)N[C@@H](Cc4ccccc4)C(=O)N[C@@H](CO)C(=O)NCC(=O)N3)NC2=O)C(=O)N[C@@H](Cc2c[nH]cn2)C(=O)N[C@@H](Cc2c[nH]c3ccccc23)C(=O)N[C@@H](CCCCN)C(=O)N[C@@H](Cc2ccc(O)cc2)C(=O)N2CCC[C@H]2C(=O)N[C@@H](Cc2c[nH]c3ccccc23)C(=O)N1)C(=O)O [E18Y] | 179 | 300 | 203 |  |  | 
CC(C)C[C@H](NC(=O)[C@H](CC(=O)O)NC(=O)[C@H](Cc1ccc(O)cc1)NC(=O)[C@H](CCCNC(=N)N)NC(=O)[C@@H]1CSSC[C@@H]2NC(=O)[C@H](CCCCN)NC(=O)[C@H](CC(N)=O)NC(=O)[C@H](CC(N)=O)NC(=O)[C@H](CC(N)=O)NC(=O)[C@@H]3CCCN3C(=O)[C@H](CC(=O)O)NC(=O)[C@@H]3CSSC[C@H](NC(=O)[C@H](C(C)C)NC(=O)[C@H](CC(C)C)NC(=O)CNC(=O)[C@H](CCC(=O)O)NC(=O)[C@H](CSSC[C@H](NC(=O)[C@H](CC(=O)O)NC(=O)CN)C(=O)N[C@@H](CC(C)C)C(=O)NCC(=O)N[C@@H](Cc4c[nH]c5ccccc45)C(=O)N[C@@H](Cc4ccccc4)C(=O)N[C@@H](CO)C(=O)NCC(=O)N3)NC2=O)C(=O)N[C@@H](Cc2c[nH]cn2)C(=O)N[C@@H](Cc2c[nH]c3ccccc23)C(=O)N[C@@H](CCCCN)C(=O)N[C@@H](Cc2ccc(O)cc2)C(=O)N2CCC[C@H]2C(=O)N[C@@H](Cc2c[nH]c3ccccc23)C(=O)N1)C(=O)O [Y20L] | 288 | 476 | 340 |  |  | 
CC(C)C[C@H](NC(=O)[C@H](Cc1ccc(O)cc1)NC(=O)[C@H](Cc1ccc(O)cc1)NC(=O)[C@H](CCCNC(=N)N)NC(=O)[C@@H]1CSSC[C@@H]2NC(=O)[C@H](CCCCN)NC(=O)[C@H](CC(N)=O)NC(=O)[C@H](CC(N)=O)NC(=O)[C@H](CC(N)=O)NC(=O)[C@@H]3CCCN3C(=O)[C@H](CC(=O)O)NC(=O)[C@@H]3CSSC[C@H](NC(=O)[C@H](C(C)C)NC(=O)[C@H](Cc4ccc(O)cc4)NC(=O)CNC(=O)[C@H](CCC(=O)O)NC(=O)[C@H](CSSC[C@H](NC(=O)[C@H](CC(=O)O)NC(=O)CN)C(=O)N[C@@H](CC(C)C)C(=O)NCC(=O)N[C@@H](Cc4c[nH]c5ccccc45)C(=O)N[C@@H](Cc4ccccc4)C(=O)N[C@@H](CO)C(=O)NCC(=O)N3)NC2=O)C(=O)N[C@@H](Cc2c[nH]cn2)C(=O)N[C@@H](Cc2c[nH]c3ccccc23)C(=O)N[C@@H](CCCCN)C(=O)N[C@@H](Cc2ccc(O)cc2)C(=O)N2CCC[C@H]2C(=O)N[C@@H](Cc2c[nH]c3ccccc23)C(=O)N1)C(=O)O [D32Y] | 110 | 417 | 75 | ~6 |  | 
